Measurements: US20230203043A1, “NOVEL IMIDAZOPYRAZINE DERIVATIVES” (Hoffmann-La Roche Inc., priority 2020, published 2023)
Structures can show the parent of a compound that is named as a salt.

system: Acinetobacter baumannii ATCC17961; experiment: Antimicrobial susceptibility testing: 90% growth inhibitory concentration (IC90) determination in Iso-Sensitest broth, OD600 growth; assay type: cell-based; conditions: Acinetobacter baumannii, ATCC17961, 16 h, read-out: A. baumannii ATCC 17961 IC90 (uM), strain ATCC 17961, OD600 growth over 16 h
In short: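 Growth inhibition is calculated during the logarithmic phase from OD600 readings taken every 20 minutes across 16 h at 35±2° C. Bacteria at ~5×10^(5) CFU/ml face twofold dilution series (e.g. 50 to 0.097 μM final).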

Row | SMILES | IC90
1 | CCc1cc(Nc2nccn3c(-c4cn(CC(F)F)nc4C(F)(F)F)cnc23)ccc1C(=O)NCCCNC(=O)[C@@H](C)N [Example 633, (R)-N-(3-(2-aminopropanamido)propyl)-4-((3-(1-(2,2-difluoroethyl)-3-(trifluoromethyl)-1H-pyrazol-4-yl)imidazo[1,2-a]pyrazin-8-yl)amino)-2-ethylbenzamide formate] | 0.214 µM
2 | CCc1cc(Nc2nccn3c(-c4cn(CC(F)F)nc4C(F)(F)F)cnc23)ccc1C(=O)N1CC2CC1CN2 (stereo not shown) [Example 561, (2,5-diazabicyclo [2.2.1]heptan-2-yl)(4-((3-(1(2,2-difluoroethyl)-3-(trifluoromethyl)-1H-pyrazol-4-yl)imidazo[1,2-a]pyrazin-8-yl)amino)-2-ethylphenyl) methanone formate] | 0.909 µM
3 | CCc1cc(Nc2nccn3c(-c4c[nH]nc4C(F)(F)F)cnc23)ccc1C(=O)NCCNC(=O)CCCN [Example 217, N-[2-(4-aminobutanoylamino)ethyl]-2-ethyl-4-[[3-[3-(trifluoromethyl)-1H-pyrazol-4-yl]imidazo[1,2-a]pyrazin-8-yl]amino]benzamide formate] | 0.543 µM
4 | CCc1cc(Nc2nccn3c(-c4cn(CC#N)nc4C(F)(F)F)cnc23)ccc1C(=O)N[C@H](C)C(=O)N1CCNCC1 [Example 678, 4-[[3-[1-(cyanomethyl)-3-(trifluoromethyl)pyrazol-4-yl]imidazo[1,2-a]pyrazin-8-yl]amino]-2-ethyl-N-[(1R)-1-methyl-2-oxo-2-piperazin-1-yl-ethyl]benzamide formate] | 0.321 µM
5 | CCc1cc(Nc2nccn3c(-c4cn(CC#N)nc4C(F)(F)F)cnc23)ccc1C(=O)NCC(=O)N1CCCC1CN (stereo not shown) [Example 510, N-[2-[2-(aminomethyl)pyrrolidin-1-yl]-2-oxo-ethyl]-4-[[3-[1-(cyanomethyl)-3-(trifluoromethyl)pyrazol-4-yl]imidazo[1,2-a]pyrazin-8-yl]amino]-2-ethyl-benzamide formate] | 0.347 µM
6 | CNC(=O)c1ccc(Nc2nccn3c(-c4cn(C5CCN(Cc6ccccc6)CC5)nc4C(F)(F)F)cnc23)cc1Cl [Example 592, 4-((3-(1-(1-benzylpiperidin-4-yl)-3-(trifluoromethyl)-1H-pyrazol-4-yl)imidazo[1,2-a]pyrazin-8-yl)amino)-2-chloro-N-methylbenzamide formate] | 0.402 µM
7 | O=C(c1ccc(Nc2nccn3c(-c4cn(Cc5cncnc5)nc4C(F)(F)F)cnc23)cc1Cl)N1CCNCC1 [Example 182, [2-chloro-4-[[3-[1-(pyrimidin-5-ylmethyl)-3-(trifluoromethyl)pyrazol-4-yl]imidazo[1,2-a]pyrazin-8-yl]amino]phenyl]-piperazin-1-ylmethanone formate] | 0.368 µM
8 | Cc1cc(Nc2nccn3c(-c4c[nH]nc4C(F)(F)F)cnc23)ccc1C(=O)N1CCN(C(=O)[C@@H]2CCNC[C@H]2O)CC1 [Example 464, formic acid; [4-[(3S,4R)-3-hydroxypiperidine-4-carbonyl]piperazin-1-yl]-[2-methyl-4-[[3-[3-(trifluoromethyl)-1H-pyrazol-4-yl]imidazo[1,2-a]pyrazin-8-yl]amino]phenyl]methanone] | 1.26 µM
9 | CCc1cc(Nc2nccn3c(-c4c[nH]nc4C(F)(F)F)cnc23)ccc1C(=O)NCCNC(=O)NCCCN [Example 569, N-(2-(3-(3-aminopropyl)ureido)ethyl)-2-ethyl-4-((3-(3-(trifluoromethyl)-1H-pyrazol-4-yl)imidazo[1,2-a]pyrazin-8-yl)amino)benzamide formate] | 0.364 µM
10 | Cc1cc(Nc2nccn3c(-c4cn(CC#N)nc4C(F)(F)F)cnc23)ccc1C(=O)N1CCN(C(=O)[C@H]2CCNC[C@@H]2O)CC1 [Example 382, formic acid; 2-[4-[8-[4-[4-[(3R,4S)-3-hydroxypiperidine-4-carbonyl]piperazine-1-carbonyl]-3-methylanilino]imidazo[1,2-a]pyrazin-3-yl]-3-(trifluoromethyl)pyrazol-1-yl]acetonitrile] | 0.749 µM
11 | Cc1cc(Nc2nccn3c(-c4cn(CC#N)nc4C(F)(F)F)cnc23)ccc1C(=O)N[C@H](C)C(=O)N1CCC(N)CC1 [Example 690, N-[(1R)-2-(4-amino-1-piperidyl)-1-methyl-2-oxo-ethyl]-4-[[3-[1-(cyanomethyl)-3-(trifluoromethyl)pyrazol-4-yl]imidazo[1,2-a]pyrazin-8-yl]amino]-2-methyl-benzamide formate] | 0.351 µM
12 | N#CCn1cc(-c2cnc3c(Nc4ccc(C(=O)N5CCN(CC(=O)N6CCNCC6)CC5)c(Cl)c4)nccn23)c(C(F)(F)F)n1 [Example 607, 2-(4-(8-((3-chloro-4-(4-(2-oxo-2-(piperazin-1-yl)ethyl)piperazine-1-carbonyl)phenyl)amino)imidazo[1,2-a]pyrazin-3-yl)-3-(trifluoromethyl)-1H-pyrazol-1-yl)acetonitrile formate] | 0.878 µM
13 | Cc1cc(Nc2nccn3c(-c4c[nH]nc4C(F)(F)F)cnc23)ccc1C(=O)N1CCN(C(=O)NCCCN)CC1 [Example 417, N-(3-aminopropyl)-4-[2-methyl-4-[[3-[3-(trifluoromethyl)-1H-pyrazol-4-yl]imidazo[1,2-a]pyrazin-8-yl]amino]benzoyl]piperazine-1-carboxamide formate] | 0.506 µM

same assay, conditions: Acinetobacter baumannii, ATCC17961, 16 h, strain ATCC 17961, OD600 growth over 16 h, read-out: A. baumannii ATCC 17961 IC90

Row | SMILES | IC90
14 | O=C(c1ccc(Nc2nccn3c(-c4cn(CC(F)F)nc4C(F)(F)F)cnc23)cc1Cl)N1CC2(C1)CN(C(=O)[C@@H]1CCCN1)C2 [Example 635, (S)-(2-chloro-4-((3-(1-(2,2-difluoroethyl)-3-(trifluoromethyl)-1H-pyrazol-4-yl)imidazo[1,2-a]pyrazin-8-yl)amino)phenyl)(6-prolyl-2,6-diazaspiro [3.3]heptan-2-yl)methanone] | 0.22 µM
15 | O=C(N[C@H]1CCNC1)c1ccc(Nc2nccn3c(-c4c[nH]nc4C(F)(F)F)cnc23)cc1Cl [Example 378, 2-chloro-N-[(3S)-pyrrolidin-3-yl]-4-[[3-[3-(trifluoromethyl)-1H-pyrazol-4-yl]imidazo[1,2-a]pyrazin-8-yl]amino]benzamide] | 0.562 µM
16 | O=C(CNC(=O)c1ccc(Nc2nccn3c(-c4c[nH]nc4C(F)(F)F)cnc23)cc1Cl)N[C@@H]1CCNC1 [Example 139, 2-chloro-N-[2-oxo-2-[[(3R)-pyrrolidin-3-yl]amino]ethyl]-4-[[3-[3-(trifluoromethyl)-1H-pyrazol-4-yl]imidazo[1,2-a]pyrazin-8-yl]amino]benzamide] | 2.8 µM
17 | C#CCn1cc(-c2cnc3c(Nc4ccc(C(=O)N5CCN(C(=O)[C@H](C)N)CC5)c(CC)c4)nccn23)c(C(F)F)n1 [Example 694, (S)-2-amino-1-(4-(4-((3-(3-(difluoromethyl)-1-(prop-2-yn-1-yl)-1H-pyrazol-4-yl)imidazo[1,2-a]pyrazin-8-yl)amino)-2-ethylbenzoyl)piperazin-1-yl)propan-1-one] | 0.358 µM
18 | O=C(c1ccc(Nc2nccn3c(-c4cn(C(F)F)nc4C(F)(F)F)cnc23)cc1Cl)N1CCN(C(=O)[C@@H]2CCCN2)CC1 [Example 104, [2-chloro-4-[[3-[1-(difluoromethyl)-3-(trifluoromethyl)pyrazol-4-yl]imidazo[1,2-a]pyrazin-8-yl]amino]phenyl]-[4-[(2S)-pyrrolidine-2-carbonyl]piperazin-1-yl]methanone] | 0.227 µM
19 | N[C@H]1CCN(C(=O)CNC(=O)c2ccc(Nc3nccn4c(-c5c[nH]nc5C(F)(F)F)cnc34)cc2Cl)C1 [Example 164, N-[2-[(3S)-3-aminopyrrolidin-1-yl]-2-oxoethyl]-2-chloro-4-[[3-[3-(trifluoromethyl)-1H-pyrazol-4-yl]imidazo[1,2-a]pyrazin-8-yl]amino]benzamide] | 1.93 µM
20 | CCc1cc(Nc2nccn3c(-c4cn(CC(F)F)nc4C(F)(F)F)cnc23)ccc1C(=O)N1CCC1(CN)CCl (stereo not shown) [Example 560, (2-(aminomethyl)-2-(chloromethyl)azetidin-1-yl)(4-((3-(1-(2,2-difluoroethyl)-3-(trifluoromethyl)-1H-pyrazol-4-yl)imidazo[1,2-a]pyrazin-8-yl)amino)-2-ethylphenyl) methanone formate] | 0.836 µM
21 | C#CCNC(=O)c1c(C)cc(Nc2nccn3c(-c4c[nH]nc4C(F)(F)F)cnc23)cc1F [Example 43, 2-fluoro-6-methyl-N-prop-2-ynyl-4-[[3-[3-(trifluoromethyl)-1H-pyrazol-4-yl]imidazo[1,2-a]pyrazin-8-yl]amino]benzamide] | 1.95 µM
22 | CCc1cc(Nc2nccn3c(-c4cn(CCC(C)(C)Cl)nc4C(F)(F)F)cnc23)ccc1C(=O)NCCOCCN [Example 655, N-(2-(2-aminoethoxy)ethyl)-4-((3-(1-(3-chloro-3-methylbutyl)-3-(trifluoromethyl)-1H-pyrazol-4-yl)imidazo[1,2-a]pyrazin-8-yl)amino)-2-ethylbenzamide] | 0.266 µM
23 | Cc1cc(Nc2nccn3c(-c4c[nH]nc4C(F)(F)F)cnc23)ccc1C(=O)N1CCN(C(=O)[C@H]2CNC[C@H](O)C2)CC1 (racemic) [Example 439, [2-methyl-4-[[3-[3-(trifluoromethyl)-1H-pyrazol-4-yl]imidazo[1,2-a]pyrazin-8-yl]amino]phenyl]-[4-[rac-(3R,5R)-5-hydroxypiperidine-3-carbonyl]piperazin-1-yl]methanone hydrochloride] | 0.834 µM
24 | N#CCn1cc(-c2cnc3c(Nc4ccc(C(=O)N5CC6(CNC6)C5)c(Cl)c4)nccn23)c(C(F)(F)F)n1 [Example 102, 2-[4-[8-[3-chloro-4-(2,6-diazaspiro[3.3]heptane-2-carbonyl)anilino]imidazo[1,2-a]pyrazin-3-yl]-3-(trifluoromethyl)pyrazol-1-yl]acetonitrile] | 0.18 µM
25 | CCc1cc(Nc2nccn3c(-c4cn(CC(F)F)nc4C(F)F)cnc23)ccc1C(=O)N1CCN(C(=O)C2CCNCC2)CC1 [Example 742, (4-(4-((3-(1-(2,2-difluoroethyl)-3-(difluoromethyl)-1H-pyrazol-4-yl)imidazo[1,2-a]pyrazin-8-yl)amino)-2-ethylbenzoyl)piperazin-1-yl)(piperidin-4-yl) methanone] | 0.53 µM
